# Read-outs that look alike come from different tables or passages of the source.
# What was measured:
# [1] = system: influenza A/PR/8/34 (H1N1); assay: microbe, parasite or virus in culture; format: cell-based, influenza A virus
# influenza A/WS/33 (H1N1) = assay: microbe, parasite or virus in culture; format: cell-based, influenza A virus
# [2] = system: influenza A/HK/8/68 (H3N2); assay: microbe, parasite or virus in culture; format: cell-based, influenza A virus
# influenza B/GL/1739/54 = assay: Anti-viral EC50 experiment, survival of virus-infected Vero cells; format: cell-based, influenza B virus; settings: for EC50 Virus B/GL/1739/54: Table 3, Vero cells, n at least 2, No effic. = no efficacy measured; for EC50: Influenza B virus, Vero, Table 4, controls, cutoff control values, determined over only 2 experiments
# Protocol: The following MDT compounds were tested: MDT-1, MDT-3, MDT-10, MDT-11, MDT-12, MDT-13, MDT-14, MDT-15, MDT-16, MDT-22, MDT-23, MDT-24, MDT-26, MDT-27, MDT-28, MDT-29, MDT-30, MDT-31, MDT-32, MDT-33, MDT-34, MDT-40, MDT-41, MDT-42, MDT-43, MDT-44, MDT-45, MDT-46, MDT-47, MDT-48, MDT-49, MDT-50, MDT-51, MDT-53, MDT-56, MDT-57, MDT-58, MDT-59, MDT-60, MDT-61, MDT-62, MDT-63, MDT-65, MDT-67, MDT-68 and MDT-69. […] Amantadine and rimantadine are both adamantane derivatives.
# Compound diluents were dimethyl sulfoxide (DMSO), Molecusol ((2-hydroxypropyl)-β-cyclodextrin; Sigma H107), propylene-glycol (PG) and deionized water. Diluents were used singly or in combination as necessary to dissolve the compounds.
# The medium used for the cell lines was 1× Minimal Essential Medium (MEM) (Invitrogen) supplemented with 1% L-glutamine, 1% penicillin-streptomycin, 0.125% bovine serum albumin (BSA), and 1 μg/ml of TPCK-trypsin.
# The viruses tested were influenza A/PR/8/34 (H1N1), influenza A/WS/33 (H1N1), influenza A/HK/8/68 (H3N2) and influenza B/GL/1739/54 (no H, N subtyping). Cells used were the Vero line of African green monkey, normal kidney cells. All viruses and cells were obtained from The American Type Culture Collection (Rockville, Md.). Cells were grown in an atmosphere of 4-6% CO2 at 34-38° C. in MEM with 5% fetal bovine serum (FBS), 2 mM glutamine, and 1% penicillin-streptomycin solution to maintain exponential growth.
# The Vero cells were plated on Day 0. On Day 1, cells were infected with virus and incubated with various concentrations of test compounds. […] On Day 4 the cells were fixed and stained. […] Cell survival due to exposure to test compound was indicative of anti-viral activity.
# [3] = Table 3, Vero cells, H1N1, n at least 2, No effic. = no efficacy measured, read-out: EC50 Virus A/PR/8/34
# [4] = Table 3, Vero cells, H1N1, n at least 2, No effic. = no efficacy measured, read-out: EC50 Virus A/WS/33
# [5] = Table 3, Vero cells, H3N2, n at least 2, No effic. = no efficacy measured
# [6] = Table 3, MDT compounds, No Tox. = no cytotoxicity measured
# [7] = Table 3, Vero cells, H1N1, n at least 2, No effic. = no efficacy measured
# [8] = Table 3, Vero cells, H3N2, n at least 2, No effic. = no efficacy measured, read-out: EC50 Virus A/HK/8/68
# [9] = Influenza A virus, Vero, Table 4, controls, cutoff control values compiled through many experiments
# [10] = Influenza A virus, H1N1, Vero, Table 4, controls, cutoff control values compiled through many experiments
# [11] = Influenza A virus, H3N2, Vero, Table 4, controls, cutoff control values compiled through many experiments
# [12] = Table 4, controls, No Tox = no cytotoxicity measured
Compound,"EC50 [1, 3]",EC50 (influenza A/WS/33 (H1N1); [4]),"EC50 Virus A/HK/8/68 [2, 5]",EC50 Virus B/GL/1739/54 (influenza B/GL/1739/54),Cytotoxicity (Vero cells; [6]),"EC50 Virus A/PR/8/34 [1, 7]",EC50 Virus A/WS/33 (influenza A/WS/33 (H1N1); [7]),"EC50 [2, 8]","EC50 [1, 9]",EC50 (influenza A/WS/33 (H1N1); [10]),"EC50 [2, 11]",EC50 (influenza B/GL/1739/54),Cytotoxicity (Vero cells; [12])
"CC12CC3CC4C1CC1(C(=O)O)CC2C(C3)C4(C)C1 [MDT-46, 1,6-dimethyl-4-diamantanecarboxylic acid]",< 125 nM,< 125 nM,No Effic.,No Effic.,No Tox.,,,,,,,,
"CC12CC3C4CC5(C)CC3C(C1)C(O)(C5)C4C2 [MDT-47, 4,9-dimethyl-1-hydroxydiamantane]",< 125 nM,460 nM,No Effic.,No Effic.,No Tox.,,,,,,,,
"CC(N)C12CC3CC4C5CC(CC41)CC2C5C3 (centres unmarked) [MDT-57, 1-(1-aminoethyl)diamantane]",,,,No Effic.,50 or above μM,No Effic.,No Effic.,160 nM,,,,,
"NCC12CC3C4CC5CC3C(C1)C(C5)C4C2 [MDT-61, 4-diamantanemethylamine]",,,,No Effic.,50 or above μM,No Effic.,No Effic.,100 nM,,,,,
"CC(N)C12CC3C4CC5CC3C(C1)C(C5)C4C2 (centres unmarked) [MDT-62, 4-(1-aminoethyl)diamantane]",280 nM,1940 nM,No Effic.,No Effic.,50 or above μM,,,,,,,,
"CCOC(=O)C1=C[C@@H](OC(CC)CC)[C@H](NC(C)=O)[C@@H](N)C1 [Oseltamivir, reference compound]",,,,,,,,,≥ 10000 nM,≥ 5000 nM,≤ 1000 nM,≥ 15000 nM,No Tox.
"CC(N)C12CC3CC(CC(C3)C1)C2.Cl (stereo not drawn) [Rimantadine, alpha-methyl-1-adamantanemethylamine hydrochloride, reference compound]",,,,,,,,,≥ 1000 nM,≥ 50000 nM,≤ 1000 nM,≥ 50000 nM,No Tox.
